# Experimental data: patent US10183915B2, “Axially chiral isomers, and preparation methods therefor and pharmaceutical uses thereof” (MEDSHINE DISCOVERY INC., priority 2015, dated 2019)
# Assays:
# [1] = Stability of compounds in SD rat plasma; type: in vitro ADME; details: for Recovery (% remaining): SD rat plasma, 2 μM, 37° C.
# Description: Test 5: Evaluation of the Stability of Compounds in Rat Plasma and Human Plasma
# 2. Experimental Procedures and Methods • 2.1 Prior to the experiment, the frozen plasma stored at −40° C. was thawed at room temperature and incubated in a 37° C. water bath for 5-10 min; centrifuged at 4000 rpm for 5 min, to remove impurities and lipids in the plasma. Measured the value of pH, if required, adjusted it to 7.4±0.1. • 2.2 Prepared 400 μM intermediate solution by diluting 4 μL of the working solution (10 mM) with 96 μL DMSO. • 2.3 Preparation of incubation samples: Remove 3 μL of intermediate solution (400 μM) to mix with 597 μL of blank plasma to achieve 2 μM of final concentration. Incubate each time point samples (0 min, 10 min, 30 min, 60 min, 120 min, in duplicate) at 37° C. in water bath. • 2.4 An aliquot of 100 μL samples of the final spiked plasma for each time point were removed to sample collected plates, added 400 μL of stop solution (200 ng/mL Tolbutamide plus 20 ng/mL Buspirone in 50% ACN/MeOH) to precipitate protein. Mixed thoroughly. • 2.5 Centrifuged each plate at 4,000 rpm for 20 min. Transfered an aliquot of supernatant (100 μL) from each well to sample plate and mixed with 200 μL ultra pure water. Shaked the plate at 800 rpm for about 10 min before submitting to LC-MS/MS analysis. 3. Experimental Data Analysis
# The ratio of the peak area to the internal standard peak area was used to assess the decrease of the test compound to be measured. The % remaining of the test compound after incubation in plasma was calculated using following equation: % Remaining=100×(PAR at appointed incubation time/PAR at T0 time)
# wherein PAR is the peak area ratio of analyte versus internal standard (IS)
# The appointed incubation time points are: 0 min, 10 min, 30 min, 60 min, 120 min; T0: Samples prior to incubation.
# human URAT1 = molecular target: T1, human URAT1 (Homo sapiens, UniProt Q96S37); experiment: Inhibition of URAT1-mediated uptake of 14C-labeled uric acid in stably transfected HEK293 cells; type: cell-based; details: multiple parallel tests
# T1 construct: host or cells: HEK293
# T1 sequence (Q96S37 1-553): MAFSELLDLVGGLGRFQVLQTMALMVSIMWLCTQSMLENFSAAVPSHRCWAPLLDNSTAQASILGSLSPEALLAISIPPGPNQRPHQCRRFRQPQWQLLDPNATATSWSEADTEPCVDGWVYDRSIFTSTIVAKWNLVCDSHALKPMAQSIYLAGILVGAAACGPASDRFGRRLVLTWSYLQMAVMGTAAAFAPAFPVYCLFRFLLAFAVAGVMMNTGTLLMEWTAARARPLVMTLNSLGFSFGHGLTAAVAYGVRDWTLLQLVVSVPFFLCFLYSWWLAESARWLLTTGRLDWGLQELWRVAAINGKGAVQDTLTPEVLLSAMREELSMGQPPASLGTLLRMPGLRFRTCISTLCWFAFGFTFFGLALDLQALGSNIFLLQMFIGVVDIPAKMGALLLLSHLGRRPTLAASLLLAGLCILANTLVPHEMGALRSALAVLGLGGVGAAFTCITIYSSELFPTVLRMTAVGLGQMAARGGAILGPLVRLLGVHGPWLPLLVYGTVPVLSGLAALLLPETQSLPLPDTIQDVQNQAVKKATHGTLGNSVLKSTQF
# Description: A HEK293 cell line stably transfected with URAT-1 (uric acid transporter) gene was used to determine the IC50 value of the compound to inhibit the reabsorption of uric acid.
# URAT-1 (HEK293) cell lines: HEK293 cell line with human URAT1 stable transfected (the cell line was constructed by WuXi AppTec in Shanghai).
# 4) The cells were diluted with culture medium to 2.5×10^5 cells/mL. The diluted cells was seeded into 24-well plates (800 μg/hole, 2×10^5 cells/hole) coated with rat tail collagen and the plates were incubated at 37° C. under 5% CO2 overnight.
# 1) The cells were inoculated on the 24-well plates and discarded 16-18 hours later. Add 600 μL HBSS buffer to each hole and clean it two times
# 2) Absorb the HBSS buffer and then add 180 μL of HBSS buffer to each hole.
# 1) Dissolve the compound powder in 100% DMSO. […]
# 10 μL of ^14C-Uric acid solution was diluted and added to each well of 24-well plates and the final concentration of ^14C-uric acid was 50 μM. […] Collect the cell lysis in liquid scintillation and read the Tri-Carb signal in liquid scintillation counter after adding the liquid scintillation solution.
# Based on the luminescence data, the inhibitory effect of compounds on URAT-1 was analyzed, and the percentage of inhibition data was calculated. […]
compound,measurement,setting,value
"O=C(O)CSc1nnc(Br)n1-c1ccc(C2CC2)c2ccccc12 (single isomer, unassigned) [(+)-Lesinurad]",Stability after co-incubation with SD-rat plasma,[1]; 2 hours,very stable
same,Recovery (% remaining),[1]; 30 min,100.3%
same,Recovery (% remaining),[1]; 60 min,99.7%
same,Recovery (% remaining),[1]; 120 min,101.2%
same,In vitro potency against URAT1 compared with (−)-Lesinurad and (±)-Lesinurad,human URAT1,obviously higher in vitro potency
